Laboratory results as given in patent US10465167B2, “Adjuvant for rapid proliferation of human mesenchymal stem cells in vitro, method for rapid proliferation of human mesenchymal stem cells in vitro, method for growth factor harvested from rapid proliferation of human mesenchymal stem cells in vitro and use thereof” (BUDDHIST TZU CHI MEDICAL FOUNDATION, priority 2013, dated 2019).

Legend:
[1] = tested on: adipose tissue-derived stem cells; experiment: Western Blot of p21 and CDK2 proteins, normal vs high oxygen; format: cell-based, human; conditions: high oxygen environment (37.5%); FIG. 4B
Description: The culture conditions of the adipose tissue-derived stem cell are divided into four groups as described in the aforementioned section 5. The Western Blot Analysis is used for the analysis to observe the effect of the controlling and adjusting the cell cycle related proteins of the adipose tissue-derived stem cells cultured in different culture conditions on the protein expression of the cell cycle related proteins (such as p21 and CDK2). Similarly, the expression of the β-actin protein is used as a control for the standardization of quantifying each aforementioned protein expression into data.

[2] = tested on: adipose tissue-derived stem cells; experiment: Cell growth density analysis, normal vs high oxygen environment; format: cell-based, human; conditions: high oxygen environment (37.5%), seventh day; FIG. 4A
Description: In this experiment, the culture conditions are divided into four groups, respectively: a culture group with a basic medium and FGF-2 in a normal oxygen environment, a culture group with a basic medium and FGF-2 in a high oxygen environment, a culture group with a basic medium and the adjuvant of the present invention in a normal oxygen environment, and a culture group with a basic medium and the adjuvant of the present invention in a high oxygen environment, wherein the high oxygen environment refers to a partial pressure of oxygen approximately equal to 37.5%, and parameters of the culture conditions (such as a basic medium, an incubator and a cell culture density) are the same as described in Section 1 of the aforementioned Experiment 1.
The cells are cleaned once by a phosphate buffer solution (PBS), and then reacted with a Trypsin-EDTA solution at 37 degrees Celsius for 5 minutes, and then the cell spatula is used to remove incompletely reacted cells carefully, and the same proportion of a medium containing a fetal bovine serum is used for neutralizing the enzyme activity of trypsin. The number of cells is measured by a cell counter (Vi-CELL AS, Beckman Coulter). […] Each set of experiment data is measured for three times, and the result is expressed in term of mean± standard deviation.

FGF-2: basic fibroblast growth factor, concentration of 10 ng/mL (R&D Systems), comparison culture additive
expression of the p21 protein [1]: significant increase of the expression of the p21 protein | total number of cells [2]: below 2.5×10^6
